Substitutions are numbered along the chain they refer to. Where two headings read alike, the source gives them in different places.

Data set [1] addresses T1, hRKIP (Homo sapiens, UniProt P30086).
T1 construct: made in house; host or cells: E. coli
Details: method as in PMID 30137201. Particulars: PE binding to hRKIP ref 34; cited from earlier work.

In data set [2] the target is T1, hRKIP. The data set is described as follows: BLI assay of ligand binding to wild-type hRKIP. How it is done: (§1) Both unlabeled and ^15N-labeled hRKIP proteins were prepared as described previously. Eight hRKIP mutants (P74L, Y81A, S109A, P111L, P112L, K113A, W173A, and Y181A) were generated by site-directed mutagenesis using the vector of pReceiver-B01a-RKIP as the template and confirmed by DNA sequencing. All protein purifications were performed at 4 °C. Protein purities were verified by polyacrylamide gel electrophoresis, and protein concentrations were measured by NanoVue (GE Heathcare Co, Boston, MA, USA).
(§2) The interaction between hRKIP and suramin was detected by using the ForteBio Octet Red system (ForteBio, Inc, San Francisco, CA, USA). The wild-type His-tagged hRKIP protein or its mutant was immobilized onto NTA reactive biosensors, and the captured biosensors were individually dipped into the wells containing various concentrations of suramin (25, 50, 100, 200, and 400 μM). The association at each suramin concentration was detected for 900 s, while the dissociation was monitored for 1800 s. The sensors loading hRKIP without suramin were used as controls to correct baseline drifts. The wells containing various concentrations of suramin without loading protein served as references. The association and dissociation responses were corrected and processed using Octet Data Analysis Software (Version 7.0, ForteBio, Inc, San Francisco, CA, USA). The interferometry data were fitted using the 1:1 Langmuir binding model.

Data set [3] deals with HEK293T cells transfected with hRKIP. The data set is described as follows: Viability of HEK293T cells transfected with hRKIP. The class given is cell-based, human. Here is the method: We further explored the effects of suramin treatment on hRKIP-mediated Ras/Raf1/MEK/ERK signal pathway by detecting the phosphorylation level of ERK, which could only be activated by MEK [37]. Principally, hRKIP binding with Raf1 inhibits the phosphorylation of Raf1, thereby blocking the following ERK phosphorylation and downregulating the MAPK pathway. […] The transfected cells were then treated with 160 μM suramin. The suramin concentration was experimentally determined as the maximal tolerant concentration for cell viability (Figure 4c), which was consistent with that used usually in clinical patients. […] As a result, the free Raf1 kinase was phosphorylated and the Ras/Raf1/MEK/ERK pathway was promoted with an enhanced phosphorylation level of the following ERK kinase.
Figure 4 Effects of suramin treatment on hRKIP-mediated Ras/Raf1/MEK/ERK pathway in HEK293 cells (a,b) Western blot analysis for the effect of suramin treatment on hRKIP-mediated ERK phosphorylation;(c) Effect of suramin treatment on viabilities of HEK293T cells transfected with hRKIP. (d,e) Western blot analysis for the effect of suramin on the ERK phosphorylation of HEK293T cell. * p <0.1; *** p <0.001; **** p <0.0001, n = 3 for each group.

Data set [4] concerns hRKIP-mediated Ras/Raf1/MEK/ERK signal pathway. Nature of the data set: ERK phosphorylation (Western blot) in hRKIP-transfected HEK293T cells. The format is cell-based, human. Particulars: 160 µM suramin, 30 min before EGF stimulation, compared with no suramin treatment. Here is the method: (§3) Human HEK293T cells were used as control group. HEK293T cells were first transfected with the exogenous hRKIP gene (the hRKIP-treated group), then the hRKIP transfected cells were serum starved overnight (10 h) and then incubated with 160 μM suramin for 30 min before EGF stimulation (the hRKIP-suramin-treated group). The transfection process was performed as following: 4 μg of pcDNA3.0-hRKIP was mixed with 75 μL lipotap (Beyotime, China), and the mixture was incubated with HEK293T cell in the dulbecco’s modified eagle medium (DMEM) with 100 units/mL penicillin (Sagon, Shanghai, China), 100 μg/mL streptomycin (Sagon, Shanghai, China) and 10% fetal bovine serum (Hyclone, Logan, UT, USA) for 6 h. Then the lipotap-DNA mixture was removed, and the transfected cell was further cultured in fresh medium. For all the three groups, the cells were cultured in DMEM supplemented with serum and […] at 37 °C. At 70% confluency, 10 ng/mL EGF was used to stimulate the Ras/Raf/MEK/ERK signal pathway for 5 min. The reaction was stopped by phosphate-buffered saline. […]
(§4) Cellular assay data are presented as mean ± standard deviation (SD). […] Statistical significances were determined using Student’s t-test. p < 0.05 was considered statistically significant.
On the technique in general: A western blot detects proteins with antibodies after separation by electrophoresis.

For another data set, the target named is T2, hRKIP S109A mutant (Homo sapiens, UniProt P30086, S109A).
T2 construct: made in house; host or cells: E. coli
T2 sequence (P30086 1-187 S109A): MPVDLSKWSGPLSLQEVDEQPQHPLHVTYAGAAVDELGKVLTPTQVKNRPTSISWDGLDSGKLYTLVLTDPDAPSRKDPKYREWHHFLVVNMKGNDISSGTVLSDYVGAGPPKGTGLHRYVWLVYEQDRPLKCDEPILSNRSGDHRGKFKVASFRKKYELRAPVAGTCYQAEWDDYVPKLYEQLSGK
Nature of the data set: BLI assay of suramin binding to hRKIP mutant S109A. Here is the method: as §1, §2

The test system of data set [5] is phosphorylation level of p-ERK in HEK293T cell. The data set is described as follows: ERK phosphorylation (Western blot) in HEK293T cells. The format is cell-based, human. Particulars: 160 μM suramin. Here is the method: as §3, §4
In another data set the target is T3, hRKIP W173A mutant (Homo sapiens, UniProt P30086, W173A).
T3 construct: made in house; host or cells: E. coli
T3 sequence (P30086 1-187 W173A): T2 sequence (P30086 1-187 S109A) with A109S, W173A
Nature of the data set: BLI assay of suramin binding to hRKIP mutant W173A. Here is the method:
as §1, §2

The target of a further data set is T4, hRKIP Y181A mutant (Homo sapiens, UniProt P30086, Y181A).
T4 construct: made in house; host or cells: E. coli
T4 sequence (P30086 1-187 Y181A): T2 sequence (P30086 1-187 S109A) with A109S, Y181A
The data set is described as follows: BLI assay of suramin binding to hRKIP mutant Y181A. Here is the method:
as §1, §2

The next data set addresses T5, hRKIP P74L mutant (Homo sapiens, UniProt P30086, P74L).
T5 construct: made in house; host or cells: E. coli
T5 sequence (P30086 1-187 P74L): T2 sequence (P30086 1-187 S109A) with P74L, A109S
The data set is described as follows: BLI assay of suramin binding to hRKIP mutant P74L. Here is the method: as §1, §2

The next data set concerns the target T6, hRKIP Y81A mutant (Homo sapiens, UniProt P30086, Y81A).
T6 construct: made in house; host or cells: E. coli
T6 sequence (P30086 1-187 Y81A): T2 sequence (P30086 1-187 S109A) with Y81A, A109S
The data set is described as follows: BLI assay of suramin binding to hRKIP mutant Y81A. How it is done:
as §1, §2

Another data set deals with T7, hRKIP P112L mutant (Homo sapiens, UniProt P30086, P112L).
T7 construct: made in house; host or cells: E. coli
T7 sequence (P30086 1-187 P112L): T2 sequence (P30086 1-187 S109A) with A109S, P112L
The data set is described as follows: BLI assay of suramin binding to hRKIP mutant P112L. How it is done: as §1, §2

The subject of the next data set is HEK293T cell. Nature of the data set: MTS experiments on HEK293T cells. Conditions: Homo sapiens, HEK-293T. The class given is cell-based.
In the next data set the target is T8, hRKIP K113A mutant (Homo sapiens, UniProt P30086, K113A).
T8 construct: made in house; host or cells: E. coli
T8 sequence (P30086 1-187 K113A): T2 sequence (P30086 1-187 S109A) with A109S, K113A
Nature of the data set: BLI assay of suramin binding to hRKIP mutant K113A. Here is the method:
as §1, §2

T1 sequence (P30086 whole entry): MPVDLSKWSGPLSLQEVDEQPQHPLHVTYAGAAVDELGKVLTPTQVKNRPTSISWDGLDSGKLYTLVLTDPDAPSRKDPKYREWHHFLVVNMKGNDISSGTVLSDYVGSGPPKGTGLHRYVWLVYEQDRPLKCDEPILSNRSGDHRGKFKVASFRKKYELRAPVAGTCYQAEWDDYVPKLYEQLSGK

In the case of `NCCOP(=O)(O)O` [PE, oO-phosphorylethanolamine], on hRKIP [1], the Kd was 8810 µM. For the same compound, the on-rate (kon) at hRKIP [2] (BLI, wild-type RKIP) turned out to be 3.0 M⁻¹ s⁻¹. For the same compound, at hRKIP [2] (BLI, wild-type hRKIP), the “dissociation rate (koff)” value is 0.0264 s⁻¹.

On to `Cc1ccc(C(=O)Nc2ccc(S(=O)(=O)O)c3cc(S(=O)(=O)O)cc(S(=O)(=O)O)c23)cc1NC(=O)c1cccc(NC(=O)Nc2cccc(C(=O)Nc3cc(C(=O)Nc4ccc(S(=O)(=O)O)c5cc(S(=O)(=O)O)cc(S(=O)(=O)O)c45)ccc3C)c2)c1` [suramin, Suramin], for which the “maximal tolerant concentration for cell viability” value in data set [3] stood at 160 µM. Moreover, in [4], the “increase of ERK phosphorylation level” value is on record as “around 3 times”. Moreover, the Kd at hRKIP S109A mutant (S109A mutant) worked out at 26 µM; at hRKIP W173A mutant, 77.3 µM; at hRKIP Y181A mutant (Y181A mutant) it was 711 µM; on hRKIP P74L mutant (P74L mutant), 37.1 µM; on hRKIP Y81A mutant (Y81A mutant), 29.7 µM; on hRKIP P112L mutant (P112L mutant), 20.4 µM. Also, the Kd at hRKIP K113A mutant stood at 87.2 µM; on hRKIP [2] (BLI, wild-type RKIP, 1:1 Langmuir binding model), 23.8 µM. In addition, the kobs worked out at 0.00295 s⁻¹ on hRKIP S109A mutant (S109A mutant); 0.000553 s⁻¹ at hRKIP W173A mutant; 0.000177 s⁻¹ at hRKIP Y181A mutant (Y181A mutant); 0.000367 s⁻¹ on hRKIP P74L mutant (P74L mutant); 0.000291 s⁻¹ at hRKIP Y81A mutant (Y81A mutant); 0.00037 s⁻¹ at hRKIP P112L mutant (P112L mutant). In addition, the kobs was 0.00038 s⁻¹ at hRKIP K113A mutant and 0.00368 s⁻¹ on hRKIP [2] (BLI, wild-type RKIP). Further, the koff was determined as 0.00018 s⁻¹ at hRKIP S109A mutant (S109A mutant); 0.000241 s⁻¹ on hRKIP W173A mutant; 0.000156 s⁻¹ at hRKIP Y181A mutant (Y181A mutant); 0.000275 s⁻¹ at hRKIP P74L mutant (P74L mutant); 0.000158 s⁻¹ on hRKIP Y81A mutant (Y81A mutant); 0.000166 s⁻¹ at hRKIP P112L mutant (P112L mutant). In addition, the koff at hRKIP K113A mutant was determined as 0.000295 s⁻¹; on hRKIP [2] (BLI, wild-type RKIP, read-out: koff) it was 0.000207 s⁻¹; on hRKIP [2] (BLI, wild-type hRKIP, read-out: dissociation rate (koff)) it was 0.0002 s⁻¹. Further, the kon on hRKIP S109A mutant (S109A mutant) was 6.93 M⁻¹ s⁻¹; on hRKIP W173A mutant, 3.12 M⁻¹ s⁻¹; at hRKIP Y181A mutant (Y181A mutant) it was 0.22 M⁻¹ s⁻¹; at hRKIP P74L mutant (P74L mutant), 7.39 M⁻¹ s⁻¹; on hRKIP Y81A mutant (Y81A mutant) it was 5.31 M⁻¹ s⁻¹; on hRKIP P112L mutant (P112L mutant), 8.14 M⁻¹ s⁻¹. Further, the kon amounted to 3.38 M⁻¹ s⁻¹ on hRKIP K113A mutant and 8.69 M⁻¹ s⁻¹ on hRKIP [2] (BLI, wild-type RKIP, read-out: kon). Besides, the “decrease of binding affinity of suramin relative to hRKIP” value at hRKIP S109A mutant (S109A mutant vs wild type) is recorded as “around 10%”. Moreover, the “enhancement of phosphorylation level of p-ERK” value in data set [5] is recorded as “around 48%”. In addition, the “decrease of affinity of suramin relative to hRKIP” value is “more than 75%” at hRKIP Y181A mutant (Y181A mutant vs wild type), “more than 30%” at hRKIP P74L mutant (P74L mutant vs wild type) and “around 20%” at hRKIP Y81A mutant (Y81A mutant vs wild type). The “change of affinity of suramin relative to hRKIP” value on hRKIP P112L mutant (P112L mutant vs wild type) was “slightly increased affinity”. In the data set with HEK293T cell, this compound yielded an IC50 of 479 µM. At hRKIP [2] (ratio of KD values, PE as native substrate), the “higher affinity for binding to hRKIP compared with PE” value is on record as “about 370 fold”.

Broadly, the Kd is the free concentration of one partner at which half of the binding sites on the other are occupied at equilibrium, for simple one-to-one binding. For orientation: kon means the rate constant with which the complex forms. The koff is the first-order rate constant of dissociation. The term IC50 denotes the midpoint of a concentration-inhibition curve. Low readings indicate greater potency in that assay, high ones weaker potency in that assay.

The values are drawn from publication PMC7926937, “Suramin Targets the Conserved Ligand-Binding Pocket of Human Raf1 Kinase Inhibitory Protein” (Molecules, 2021).
